Laboratory results published in paper PMC8692984 (Frontiers in Pharmacology, 2021).
“And” between values parts separate entries of the source, which are not always exact repeats. Equal entries are not always repeated. Bridge positions count the residues as written; N and C are the ends. Peptide text beside a SMILES is read from it.

Tests used:
α7 nAChRs [1] = biological target: T1, α7 nAChRs (Homo sapiens, UniProt P36544)
α7 nAChRs [2] = biological target: T1, α7 nAChRs; remark: listed apart in the source
Ls-AChBP = Ls-AChBP (Lymnaea stagnalis, UniProt P58154); assay: biochemical; conditions: SEM
Sequence of Ls-AChBP (P58154 20-229 limits assumed): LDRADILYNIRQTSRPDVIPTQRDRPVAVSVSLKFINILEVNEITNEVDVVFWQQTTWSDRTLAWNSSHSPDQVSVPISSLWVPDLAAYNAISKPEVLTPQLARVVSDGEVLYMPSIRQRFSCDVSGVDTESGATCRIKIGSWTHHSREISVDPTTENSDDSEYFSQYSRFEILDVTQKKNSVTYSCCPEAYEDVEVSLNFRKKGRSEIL

T1 sequence (P36544 23-502): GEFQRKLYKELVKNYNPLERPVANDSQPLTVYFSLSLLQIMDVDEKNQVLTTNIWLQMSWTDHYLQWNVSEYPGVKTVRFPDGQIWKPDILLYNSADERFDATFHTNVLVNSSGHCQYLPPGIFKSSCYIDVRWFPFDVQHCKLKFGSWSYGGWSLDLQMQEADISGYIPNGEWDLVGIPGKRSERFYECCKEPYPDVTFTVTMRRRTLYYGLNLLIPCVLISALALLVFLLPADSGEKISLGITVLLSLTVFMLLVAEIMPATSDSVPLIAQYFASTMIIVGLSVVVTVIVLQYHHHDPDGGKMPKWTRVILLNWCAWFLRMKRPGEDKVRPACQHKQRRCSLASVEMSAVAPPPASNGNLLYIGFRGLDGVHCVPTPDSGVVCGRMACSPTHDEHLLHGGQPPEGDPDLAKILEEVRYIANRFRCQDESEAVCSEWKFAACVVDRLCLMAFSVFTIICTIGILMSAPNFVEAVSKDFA

| Compound | extent of inhibition of α7 nAChR responses to choline (α7 nAChRs [1]) [%] | residual response at TQS-α7 nAChRs (α7 nAChRs [2]) [%] | IC50 (Ls-AChBP) [nM] | also measured |
| --- | --- | --- | --- | --- |
| CC[C@H](C)[C@@H]1NC(=O)[C@H](Cc2c[nH]cn2)NC(=O)[C@@H]2CCCN2C(=O)[C@H](CC(N)=O)NC(=O)[C@H](CC(N)=O)NC(=O)[C@H](C(C)C)NC(=O)[C@H](Cc2c[nH]cn2)NC(=O)[C@@H]2CSSC[C@H](NC(=O)CN)C(=O)N[C@@H](CSSC[C@@H](C(=O)NCC(N)=O)NC1=O)C(=O)N[C@@H](CO)C(=O)N[C@@H](Cc1c[nH]cn1)C(=O)N1CCC[C@H]1C(=O)N[C@@H](C)C(=O)N2 [[N9H]OmIA] (H-GCCSHPACHVNNPHICG-NH2; disulfide 2-8, 3-16) | ~50 | ~15 | 730 ± 50 | – |
| CC[C@H](C)[C@@H]1NC(=O)[C@H](Cc2c[nH]cn2)NC(=O)[C@@H]2CCCN2C(=O)[C@H](CC(N)=O)NC(=O)[C@H](CC(N)=O)NC(=O)[C@H](CC(C)C)NC(=O)[C@H](CC(N)=O)NC(=O)[C@@H]2CSSC[C@H](NC(=O)CN)C(=O)N[C@@H](CSSC[C@@H](C(=O)NCC(N)=O)NC1=O)C(=O)N[C@@H](CO)C(=O)N[C@@H](Cc1c[nH]cn1)C(=O)N1CCC[C@H]1C(=O)N[C@@H](C)C(=O)N2 [[V10L]OmIA] (H-GCCSHPACNLNNPHICG-NH2; disulfide 2-8, 3-16) | – | – | 680 ± 130 | increase of OmIA IC50 at TQS-α7 nAChRs (α7 nAChRs [2]): 10 fold |
| CC[C@H](C)[C@@H]1NC(=O)[C@H](Cc2cnc[nH]2)NC(=O)[C@@H]2CCCN2C(=O)[C@H](CC(N)=O)NC(=O)[C@H](CC(N)=O)NC(=O)[C@H](C(C)C)NC(=O)[C@H](CC(N)=O)NC(=O)[C@@H]2CSSC[C@H](NC(=O)CN)C(=O)N[C@@H](CSSC[C@@H](C(=O)NCC(N)=O)NC1=O)C(=O)N[C@@H](CO)C(=O)N[C@@H](Cc1cnc[nH]1)C(=O)N1CCC[C@H]1C(=O)N[C@@H](C)C(=O)N2 [OmIA] (H-GCCSHPACNVNNPHICG-NH2; disulfide 2-8, 3-16) | – | – | 280 ± 70 | – |
| CC[C@H](C)[C@@H]1NC(=O)[C@H](Cc2c[nH]cn2)NC(=O)[C@@H]2CCCN2C(=O)[C@H](CC(N)=O)NC(=O)[C@H](CC(N)=O)NC(=O)[C@H](C)NC(=O)[C@H](CC(N)=O)NC(=O)[C@@H]2CSSC[C@H](NC(=O)CN)C(=O)N[C@@H](CSSC[C@@H](C(=O)NCC(N)=O)NC1=O)C(=O)N[C@@H](CO)C(=O)N[C@@H](Cc1c[nH]cn1)C(=O)N1CCC[C@H]1C(=O)N[C@@H](C)C(=O)N2 [[V10A]OmIA] (H-GCCSHPACNANNPHICG-NH2; disulfide 2-8, 3-16) | – | – | – | Choline EC50 ± SEM at PNU120596-α7 nAChRs in the presence of peptide (α7 nAChRs [1]): 7 ± 1.20 and 8 ± 0.47 and 11 ± 1.20; mode of antagonism at PNU120596-α7 nAChRs (α7 nAChRs [1]): fully insurmountable antagonism; Fraction 2 ± SEM at PNU120596-modified α7 nAChRs (α7 nAChRs [1]; SEM): 0.58 ± 0.04 and 0.57 ± 0.11 and 0.37 ± 0.04; Choline EC50 ± SEM at TQS-α7 nAChRs in the presence of peptide (α7 nAChRs [2]): 3 ± 0.20 and 4 ± 1.00 and 5 ± 0.48 |
| CC[C@H](C)[C@@H]1NC(=O)[C@H](Cc2c[nH]cn2)NC(=O)[C@@H]2CCCN2C(=O)[C@H](CC(N)=O)NC(=O)[C@H](CC(N)=O)NC(=O)[C@H]([C@@H](C)O)NC(=O)[C@H](CC(N)=O)NC(=O)[C@@H]2CSSC[C@H](NC(=O)CN)C(=O)N[C@@H](CSSC[C@@H](C(=O)NCC(N)=O)NC1=O)C(=O)N[C@@H](CO)C(=O)N[C@@H](Cc1c[nH]cn1)C(=O)N1CCC[C@H]1C(=O)N[C@@H](C)C(=O)N2 [[V10T]OmIA] (H-GCCSHPACNTNNPHICG-NH2; disulfide 2-8, 3-16) | – | – | 1000 ± 50 | residual response at PNU120596-α7 nAChRs (α7 nAChRs [1]): 60% |
| CC[C@H](C)[C@@H]1NC(=O)[C@H](Cc2c[nH]cn2)NC(=O)[C@@H]2CCCN2C(=O)[C@H](CC(N)=O)NC(=O)[C@H](CC(N)=O)NC(=O)[C@H](C(C)C)NC(=O)[C@H](CC(N)=O)NC(=O)[C@@H]2CSSC[C@H](NC(=O)CN)C(=O)N[C@@H](CSSC[C@@H](C(=O)NCC(N)=O)NC1=O)C(=O)N[C@@H](CO)C(=O)N[C@@H](Cc1c[nH]cn1)C(=O)N1CCC[C@H]1C(=O)N[C@@H](C)C(=O)N2 [OmIA] (H-GCCSHPACNVNNPHICG-NH2; disulfide 2-8, 3-16) | ~50 | ~15 | – | – |
